Source: patent publication US20250320506A1, “ULTR[…] M[…]-FREE […] CASCADED AMP[…] POSITIVE FEEDBACK” (Northwestern University, priority 2019, published 2025)

Tests used:
[1] = tested on: cell-free protein synthesis; assay: titration of analyte against an unregulated reporter plasmid (pT7-sfGFP) in a cell-free gene expression reaction; format: biochemical, E. coli; details: 100 μM CuSO4; transcription and translation in vitro
Excerpt: FIG. 4A-D. FIG. 4 illustrates various aspects of the biosensors of the present disclosure. (A) The “enriched” extract that contains the allosteric transcription factor can be mixed against a “blank” unenriched extract to modulate the concentration of the transcription factor in the reaction. (B) For tighter control and specificity of a cascaded system, if T7 RNA polymerase is used to drive expression of the allosteric transcription factor in the host strain of extract, an engineered variant of T7 RNAP may be used as the output of the regulated promoter. Exemplary T7 RNAP mutants are illustrated. […] The E. coli RNAP is used to express four T7 RNAP variants from a mock sensor plasmid (5 nM) that contains the consensus E. coli promoter J23119. The corresponding reporter plasmid is added at 5 nM. The kinetics of T7 RNAP synthesis lead to a time delay of about 20-30 minutes relative to a reaction that uses purified WT T7 RNAP. […] Reporter yields are from triplicates of four-hour sfGFP yields on a plate reader at 30° C. […]
A series of tuning experiments are next used to optimize the sensor. […] This experiment is an isothermal cell-free gene expression reaction held at 30° C. in a plate reader for ˜4 hours using an established set of physiochemical conditions to maximize protein production in general. […]

lead sensor = assay: crosstalk between four metal-sensing aTFs using cell-free response; format: biochemical; details: heatmap
Excerpt: FIG. 21. Design of mitigating cross-talk of sensors. Experimental measurement of crosstalk between four metal-sensing aTFs using cell-free response. Heatmap is colored more brightly to indicate stronger fluorescent signal.

Compound | effect on cell-free protein synthesis [1] | crosstalk (fluorescent signal) of metal-sensing aTF sensor with non-cognate metal (lead sensor)
O=S(=O)([O-])[O-].[Cu+2] [CuSO4] | shuts down cell-free protein synthesis | 
[Cd] [cadmium] |  | crosstalk for the lead sensor with cadmium
